{
  "source": "ChEMBL document CHEMBL5370649",
  "about": "“Novel Coumarin Derivatives Inhibit the Quorum Sensing System and Iron Homeostasis as Antibacterial Synergists against Pseudomonas aeruginosa” (J Med Chem, 2023)",
  "key": {"Pseudomonas aeruginosa [1]": {"test_system": "Pseudomonas aeruginosa", "assay": "Upregulation of fpvA expression in Pseudomonas aeruginosa PAO1 at 20 uM incubated for 24 hrs by RNA sequencing analysis", "format": "functional"}, "Pseudomonas aeruginosa [2]": {"test_system": "Pseudomonas aeruginosa", "assay": "Downregulation of mexE expression in Pseudomonas aeruginosa PAO1 at 20 uM incubated for 24 hrs by RNA sequencing analysis", "format": "functional"}, "[3]": {"assay": "Toxicity in Balb/c mouse wound infection model infected with Pseudomonas aeruginosa PAO1 assessed as body weight change at 50 uM,TOP for 3 days in Tobramycin", "details": "in vivo, topical_or_ocular, 72 h, time 3 day"}, "Pseudomonas aeruginosa [4]": {"test_system": "Pseudomonas aeruginosa", "assay": "Antibacterial activity against Pseudomonas aeruginosa PAO1 in ABTGC medium assessed as bacterial growth inhibition at 1.25 to 20 uM incubated for 16 hrs", "format": "functional, organism-based", "details": "dose 1.25-20 µM"}, "[5]": {"assay": "Toxicity in Balb/c mouse wound infection model infected with Pseudomonas aeruginosa PAO1 assessed as morphological changes in heart at 50 uM,TOP for 3 days in Ciprofloxacin by H and E staining based analysis", "format": "tissue-based", "details": "in vivo, topical_or_ocular, 72 h, time 3 day"}, "[6]": {"assay": "Inhibition of quorum sensing system in Pseudomonas aeruginosa PAO1-lasB-gfp assessed as inhibition of GFP fluorescence expression at 1.25 to 20 uM and measured for 12 hrs at 15 mins interval by fluorescence assay", "details": "dose 1.25-20 µM"}, "[7]": {"assay": "Toxicity in Balb/c mouse wound infection model infected with Pseudomonas aeruginosa PAO1 assessed as morphological changes in spleen at 50 uM,TOP for 3 days in Ciprofloxacin by H and E staining based analysis", "format": "tissue-based", "details": "in vivo, topical_or_ocular, 72 h, time 3 day"}, "[8]": {"assay": "Inhibition of quorum sensing system in Pseudomonas aeruginosa PAO1-gfp assessed as inhibition of GFP fluorescence expression at 1.25 to 20 uM and measured for 12 hrs at 15 mins interval by fluorescence assay", "details": "dose 1.25-20 µM"}, "[9]": {"assay": "Inhibition of quorum sensing system in Pseudomonas aeruginosa PAO1-rhlA-gfp assessed as inhibition of GFP fluorescence expression at 1.25 to 20 uM and measured for 12 hrs at 15 mins interval by fluorescence assay", "details": "dose 1.25-20 µM"}, "[10]": {"assay": "Toxicity in Balb/c mouse wound infection model infected with Pseudomonas aeruginosa PAO1 assessed as morphological changes in lung at 50 uM,TOP for 3 days in Ciprofloxacin by H and E staining based analysis", "format": "tissue-based", "details": "in vivo, topical_or_ocular, 72 h, time 3 day"}, "Pseudomonas aeruginosa [11]": {"test_system": "Pseudomonas aeruginosa", "assay": "Antibacterial activity against Pseudomonas aeruginosa PAO1 in ABTGC medium assessed as bacterial growth inhibition incubated for 16 hrs", "format": "functional"}, "Pseudomonas aeruginosa [12]": {"test_system": "Pseudomonas aeruginosa", "assay": "Synergistic antibacterial activity against Pseudomonas aeruginosa PAO1 infected in Balb/c mouse wound infection model assessed as reduction in bacterial survival rate at wounded area at 50 uM,TOP QD for 3 days in presence of Tobramycin by CFU assay", "format": "functional", "details": "time 3 day"}, "[13]": {"target": "T1, Transcriptional activator protein LasR (Pseudomonas aeruginosa (strain ATCC 15692 / PAO1 / 1C / PRS 101 / LMG12228)) (UniProt P25084)", "T1 sequence (whole entry)": "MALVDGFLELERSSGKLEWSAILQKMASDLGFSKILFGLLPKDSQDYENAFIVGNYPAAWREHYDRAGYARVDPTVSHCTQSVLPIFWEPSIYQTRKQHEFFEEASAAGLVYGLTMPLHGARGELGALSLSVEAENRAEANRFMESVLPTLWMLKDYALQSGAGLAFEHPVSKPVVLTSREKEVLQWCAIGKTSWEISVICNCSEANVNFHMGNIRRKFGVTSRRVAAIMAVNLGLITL", "assay": "Inhibition of LasR-mediated quorum sensing system in Pseudomonas aeruginosa PAO1 assessed as inhibition of elastase production at 1.25 to 20 uM incubated for 24 hrs using BODIPY-FL-labeled DQ elastin conjugate as substrate by fluorometric method", "details": "dose 1.25-20 µM"}, "Pseudomonas aeruginosa [14]": {"test_system": "Pseudomonas aeruginosa", "assay": "Downregulation of trpG expression in Pseudomonas aeruginosa PAO1 at 20 uM incubated for 24 hrs by RNA sequencing analysis", "format": "functional"}, "[15]": {"assay": "Inhibition of quorum sensing system in Pseudomonas aeruginosa PAO1-pqsA-gfp assessed as inhibition of GFP fluorescence expression at 1.25 to 20 uM and measured for 12 hrs at 15 mins interval by fluorescence assay", "details": "dose 1.25-20 µM"}, "[16]": {"assay": "Toxicity in Balb/c mouse wound infection model infected with Pseudomonas aeruginosa PAO1 assessed as morphological changes in heart at 50 uM,TOP for 3 days in Tobramycin by H and E staining based analysis", "format": "tissue-based", "details": "in vivo, topical_or_ocular, 72 h, time 3 day"}, "Pseudomonas aeruginosa [17]": {"test_system": "Pseudomonas aeruginosa", "assay": "Synergistic antibacterial activity against Pseudomonas aeruginosa PAO1 infected in Balb/c mouse wound infection model assessed as reduction in bacterial infection at 50 uM,TOP QD for 3 days in presence of Ciprofloxacin by CFU assay", "format": "functional", "design": "scale not given: the % may be the effect or the level left", "details": "time 3 day"}, "Pseudomonas aeruginosa [18]": {"test_system": "Pseudomonas aeruginosa", "assay": "Downregulation of pqsA expression in Pseudomonas aeruginosa PAO1 at 20 uM incubated for 24 hrs by RNA sequencing analysis", "format": "functional"}, "Pseudomonas aeruginosa [19]": {"test_system": "Pseudomonas aeruginosa", "assay": "Antibiofilm activity against in Pseudomonas aeruginosa PAO1 assessed as pilus formation at 5 to 40 uM incubated for 16 hrs by SEM analysis", "format": "functional, organism-based", "details": "dose 5-40 µM"}, "[20]": {"assay": "Toxicity in Balb/c mouse wound infection model infected with Pseudomonas aeruginosa PAO1 assessed as morphological changes in liver at 50 uM,TOP for 3 days in Tobramycin by H and E staining based analysis", "format": "tissue-based", "details": "in vivo, topical_or_ocular, 72 h, time 3 day"}, "Pseudomonas aeruginosa [21]": {"test_system": "Pseudomonas aeruginosa", "assay": "Upregulation of pvdJ expression in Pseudomonas aeruginosa PAO1 at 20 uM incubated for 24 hrs by RNA sequencing analysis", "format": "functional"}, "Pseudomonas aeruginosa [22]": {"test_system": "Pseudomonas aeruginosa", "assay": "Downregulation of rhl expression in Pseudomonas aeruginosa PAO1 at 20 uM incubated for 24 hrs by RNA sequencing analysis", "format": "functional"}, "Pseudomonas aeruginosa [23]": {"test_system": "Pseudomonas aeruginosa", "assay": "Antibiofilm activity against Pseudomonas aeruginosa PAO1 in ABTGC medium assessed as inhibition of biofilm formation incubated for 24 hrs by crystal violet staining based absorbance assay", "format": "functional, organism-based", "details": "PAO1, 24 h"}, "L02": {"test_system": "L02", "assay": "Cytotoxicity against human L02 cells assessed as reduction in cell viability upto 50 uM incubated for 24 hrs by MTT assay", "format": "toxicity, cell-based", "details": "l02, 24 h"}, "[24]": {"assay": "Toxicity in Balb/c mouse wound infection model infected with Pseudomonas aeruginosa PAO1 assessed as body weight change at 50 uM,TOP for 3 days in Ciprofloxacin", "details": "in vivo, topical_or_ocular, 72 h, time 3 day"}, "Pseudomonas aeruginosa [25]": {"test_system": "Pseudomonas aeruginosa", "assay": "Upregulation of pvdE expression in Pseudomonas aeruginosa PAO1 at 20 uM incubated for 24 hrs by RNA sequencing analysis", "format": "functional"}, "Pseudomonas aeruginosa [26]": {"test_system": "Pseudomonas aeruginosa", "assay": "Inhibition of iron homeostasis in Pseudomonas aeruginosa PAO1 in ABTGC medium assessed as increase in iron-free pyoverdine production at 1.25 to 20 uM in presence of FeCl3 by fluorescence based microplate reader analysis", "format": "functional, organism-based", "details": "dose 1.25-20 µM"}, "Pseudomonas aeruginosa [27]": {"test_system": "Pseudomonas aeruginosa", "assay": "Downregulation of pilT expression in Pseudomonas aeruginosa PAO1 at 20 uM incubated for 24 hrs by RNA sequencing analysis", "format": "functional"}, "[28]": {"assay": "Metal chelating activity assessed as Fe3+-compound complex formation assessed as pFe(III) value by fluorescence method"}, "[29]": {"assay": "Toxicity in Balb/c mouse wound infection model infected with Pseudomonas aeruginosa PAO1 assessed as morphological changes in lung at 50 uM,TOP for 3 days in Tobramycin by H and E staining based analysis", "format": "tissue-based", "details": "in vivo, topical_or_ocular, 72 h, time 3 day"}, "[30]": {"assay": "Toxicity in Balb/c mouse wound infection model infected with Pseudomonas aeruginosa PAO1 assessed as morphological changes in spleen at 50 uM,TOP for 3 days in Tobramycin by H and E staining based analysis", "format": "tissue-based", "details": "in vivo, topical_or_ocular, 72 h, time 3 day"}, "Pseudomonas aeruginosa [31]": {"test_system": "Pseudomonas aeruginosa", "assay": "Antibiofilm activity against Pseudomonas aeruginosa PAO1 fpvA-overexpressing mutant assessed as inhibition of biofilm formation at 1.25 to 20 uM incubated for 24 hrs by crystal violet staining based absorbance assay", "format": "functional, organism-based", "details": "dose 1.25-20 µM"}},
  "note": "The source made the active and inactive calls. The rule behind the calls is not given here.",
  "data": [
    {"smiles": "Cc1ccc2oc(=O)cc(OCCCCCCC(=O)NO)c2c1", "values": [
      {"measurement": "Activity", "setting": "Pseudomonas aeruginosa [1]", "value": "Active"},
      {"measurement": "Activity", "setting": "Pseudomonas aeruginosa [2]", "value": "Active"},
      {"measurement": "Activity", "setting": "[3]", "value": "Non-Toxic"},
      {"measurement": "Activity", "setting": "Pseudomonas aeruginosa [4]", "value": "inactive"},
      {"measurement": "Activity", "setting": "[5]", "value": "Non-Toxic"},
      {"measurement": "inhibition", "setting": "[6]", "value": "Dose-Dependent Effect"},
      {"measurement": "Activity", "setting": "[7]", "value": "Non-Toxic"},
      {"measurement": "inhibition", "setting": "[8]", "value": "inactive"},
      {"measurement": "inhibition", "setting": "[9]", "value": "inactive"},
      {"measurement": "Activity", "setting": "[10]", "value": "Non-Toxic"},
      {"measurement": "MIC", "setting": "Pseudomonas aeruginosa [11]", "value": "> 256", "unit": "µM"},
      {"measurement": "Activity", "setting": "Pseudomonas aeruginosa [12]", "value": 1.78, "unit": "%"},
      {"measurement": "inhibition", "setting": "[13]", "value": "Dose-Dependent Effect"},
      {"measurement": "Activity", "setting": "Pseudomonas aeruginosa [14]", "value": "Active"},
      {"measurement": "inhibition", "setting": "[15]", "value": "Dose-Dependent Effect"},
      {"measurement": "Activity", "setting": "[16]", "value": "Non-Toxic"},
      {"measurement": "Activity", "setting": "Pseudomonas aeruginosa [17]", "value": 100, "unit": "%"},
      {"measurement": "Activity", "setting": "Pseudomonas aeruginosa [18]", "value": "Active"},
      {"measurement": "Activity", "setting": "Pseudomonas aeruginosa [19]", "value": "Dose-Dependent Effect"},
      {"measurement": "Activity", "setting": "[20]", "value": "Non-Toxic"},
      {"measurement": "Activity", "setting": "Pseudomonas aeruginosa [21]", "value": "Active"},
      {"measurement": "Activity", "setting": "Pseudomonas aeruginosa [22]", "value": "Active"},
      {"measurement": "IC50", "setting": "Pseudomonas aeruginosa [23]", "value": 3.66, "unit": "µM"},
      {"measurement": "Activity", "setting": "L02", "value": "Non-Toxic"},
      {"measurement": "Activity", "setting": "[24]", "value": "Non-Toxic"},
      {"measurement": "Activity", "setting": "Pseudomonas aeruginosa [25]", "value": "Active"},
      {"measurement": "inhibition", "setting": "Pseudomonas aeruginosa [26]", "value": "Active"},
      {"measurement": "Activity", "setting": "Pseudomonas aeruginosa [27]", "value": "Active"},
      {"measurement": "pFe(III)", "setting": "[28]", "value": 20.1},
      {"measurement": "Activity", "setting": "[29]", "value": "Non-Toxic"},
      {"measurement": "Activity", "setting": "[30]", "value": "Non-Toxic"},
      {"measurement": "inhibition", "setting": "Pseudomonas aeruginosa [31]", "value": "inactive"}
    ]}
  ]
}
